# Measurements as given in patent US20260184691A1, “INHIBITORS AND DEGRADERS OF PIP4K PROTEIN” (Larkspur Biosciences, Inc., priority 2022, published 2026).
# Molecular target: T1, endogenous PIP4K2C C-terminally tagged with HiBiT peptide in MOLT-4 cells (Homo sapiens, UniProt Q8TBX8)
# T1 construct: to C-terminally tag endogenous PIP4K2C with HiBiT peptide; host or cells: MOLT-4 (CRISPR-Cas9 knock-in clone)
# T1 sequence (Q8TBX8 1-421): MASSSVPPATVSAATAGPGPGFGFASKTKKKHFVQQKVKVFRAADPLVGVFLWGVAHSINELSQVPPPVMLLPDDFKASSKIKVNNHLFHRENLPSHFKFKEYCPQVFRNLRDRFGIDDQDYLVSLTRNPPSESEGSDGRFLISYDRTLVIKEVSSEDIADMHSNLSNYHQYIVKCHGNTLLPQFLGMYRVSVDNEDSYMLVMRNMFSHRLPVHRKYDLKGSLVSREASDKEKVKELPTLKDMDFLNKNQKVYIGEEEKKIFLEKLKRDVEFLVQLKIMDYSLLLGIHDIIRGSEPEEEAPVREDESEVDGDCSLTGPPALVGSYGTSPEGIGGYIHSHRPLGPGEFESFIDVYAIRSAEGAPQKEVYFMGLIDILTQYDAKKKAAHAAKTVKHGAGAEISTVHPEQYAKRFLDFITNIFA
# Assay: HiBiT PIP4K2C degradation assay in MOLT-4 cells
# Type: cell-based
# Settings: 24 hours, 10-point dose response, top concentration 10 micromolar, read-out: HiBIT-degradation MOLT4 PIP4k2C 24 hours DC50
# Outline: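 Cells bearing C-terminal HiBiT knock-in were exposed to a 10-point, 3-fold dilution series (top 10 micromolar, duplicate) for 24 h at 37C, 5% CO2. Remaining tagged protein read by lytic HiBiT luminescence; DC50 from Hill-equation fit.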
row,Compound,DC50 [nM]
1,"O=C(COc1cccc2c1C(=O)N(C1CCC(=O)NC1=O)C2=O)NCCCCCCCCCC(=O)Nc1cncc(Nc2ncc(Cl)c(-c3cccc(-c4ccccc4)c3)n2)c1 (stereo not shown) [Compound 85, N-(5-((4-([1,1′-biphenyl]-3-yl)-5-chloropyrimidin-2-yl)amino)pyridin-3-yl)-10-(2-((2-(2,6-dioxopiperidin-3-yl)-1,3-dioxoisoindolin-4-yl)oxy)acetamido)decanamide]",500 to 1000
2,"O=C1CCC(N2Cc3cc(C4CCN(C(=O)CN5CCC(C(=O)Nc6cncc(Nc7ncc(Cl)c(-c8cccc(C9CC9)c8)n7)c6)CC5)CC4)ccc3C2=O)C(=O)N1 (stereo not shown) [Compound 196, N-(5-((5-chloro-4-(3-cyclopropylphenyl)pyrimidin-2-yl)amino)pyridin-3-yl)-1-(2-(4-(2-(2,6-dioxopiperidin-3-yl)-1-oxoisoindolin-5-yl)piperidin-1-yl)-2-oxoethyl)piperidine-4-carboxamide]",< 500
3,"O=C1CCC(N2C(=O)c3cccc(OCCCN4CCN(CCCCCCC(=O)Nc5cncc(Nc6ncc(Cl)c(-c7cccc(-c8ccccc8)c7)n6)c5)CC4)c3C2=O)C(=O)N1 (stereo not shown) [Compound 58, N-(5-((4-([1,1′-biphenyl]-3-yl)-5-chloropyrimidin-2-yl)amino)pyridin-3-yl)-7-(4-(3-((2-(2,6-dioxopiperidin-3-yl)-1,3-dioxoisoindolin-4-yl)oxy)propyl)piperazin-1-yl)heptanamide]",< 500
4,"O=C1CCC(N2Cc3cc(OC4CCN(C(=O)CN5CCC(C(=O)Nc6cncc(Nc7ncc(Cl)c(-c8cccc(C9CC9)c8)n7)c6)CC5)CC4)ccc3C2=O)C(=O)N1 (stereo not shown) [Compound 201, N-(5-((5-chloro-4-(3-cyclopropylphenyl)pyrimidin-2-yl)amino)pyridin-3-yl)-1-(2-(4-((2-(2,6-dioxopiperidin-3-yl)-1-oxoisoindolin-5-yl)oxy)piperidin-1-yl)-2-oxoethyl)piperidine-4-carboxamide]",< 500
5,"O=C1CCC(N2C(=O)c3cccc(OCCCN4CCN(CCCCCC(=O)Nc5cncc(Nc6ncc(Cl)c(-c7cccc(-c8ccccc8)c7)n6)c5)CC4)c3C2=O)C(=O)N1 (stereo not shown) [Compound 68, N-(5-((4-([1,1′-biphenyl]-3-yl)-5-chloropyrimidin-2-yl)amino)pyridin-3-yl)-6-(4-(3-((2-(2,6-dioxopiperidin-3-yl)-1,3-dioxoisoindolin-4-yl)oxy)propyl)piperazin-1-yl)hexanamide]",< 500
6,"O=C(COc1cccc2c1CN(C1CCC(=O)NC1=O)C2=O)NCCCCCCCCCC(=O)Nc1cncc(Nc2ncc(Cl)c(-c3cccc(-c4ccccc4)c3)n2)c1 (stereo not shown) [Compound 66, N-(5-((4-([1,1′-biphenyl]-3-yl)-5-chloropyrimidin-2-yl)amino)pyridin-3-yl)-10-(2-((2-(2,6-dioxopiperidin-3-yl)-1-oxoisoindolin-4-yl)oxy)acetamido)decanamide]",< 500
7,"O=C1CCC(Nc2ccc(N3CCC(CN4CCC5(CC4)CCN(c4cncc(Nc6ncc(Cl)c(-c7ccc(Cl)cc7)n6)c4)C5=O)CC3)cc2)C(=O)N1 (stereo not shown) [Compound 174, 3-((4-(4-((2-(5-((5-chloro-4-(4-chlorophenyl)pyrimidin-2-yl)amino)pyridin-3-yl)-1-oxo-2,8-diazaspiro[4.5]decan-8-yl)methyl)piperidin-1-yl)phenyl)amino)piperidine-2,6-dione]",1000 to 5000
8,"O=C1CCC(Nc2ccc(N3CCC(CN4CCC(C(=O)Nc5cncc(Nc6ncc(Cl)c(-c7cccc(-c8ccccc8)c7)n6)c5)CC4)CC3)cc2)C(=O)N1 (stereo not shown) [Compound 187, N-(5-((4-([1,1′-biphenyl]-3-yl)-5-chloropyrimidin-2-yl)amino)pyridin-3-yl)-1-((1-(4-((2,6-dioxopiperidin-3-yl)amino)phenyl)piperidin-4-yl)methyl)piperidine-4-carboxamide]",< 500
9,"O=C1CCC(N2Cc3cc(OCCCCCCCCC(=O)N4CCC5(CC4)CCN(c4cncc(Nc6ncc(Cl)c(-c7cccc(-c8ccccc8)c7)n6)c4)C5=O)ccc3C2=O)C(=O)N1 (stereo not shown) [Compound 62, 3-(5-((9-(2-(5-((4-([1,1′-biphenyl]-3-yl)-5-chloropyrimidin-2-yl)amino)pyridin-3-yl)-1-oxo-2,8-diazaspiro[4.5]decan-8-yl)-9-oxononyl)oxy)-1-oxoisoindolin-2-yl)piperidine-2,6-dione]",< 500
10,"O=C(COc1ccc2c(c1)CN(C1CCC(=O)NC1=O)C2=O)NCCCCCCCCCC(=O)Nc1cncc(Nc2ncc(Cl)c(-c3cccc(-c4ccccc4)c3)n2)c1 (stereo not shown) [Compound 60, N-(5-((4-([1,1′-biphenyl]-3-yl)-5-chloropyrimidin-2-yl)amino)pyridin-3-yl)-10-(2-((2-(2,6-dioxopiperidin-3-yl)-1-oxoisoindolin-5-yl)oxy)acetamido)decanamide]",< 500
11,"O=C1CCC(N2C(=O)c3ccc(OCCCCCCCC(=O)N4CCC5(CC4)CCN(c4cncc(Nc6ncc(Cl)c(-c7cccc(-c8ccccc8)c7)n6)c4)C5=O)cc3C2=O)C(=O)N1 (stereo not shown) [Compound 73, 5-((8-(2-(5-((4-([1,1′-biphenyl]-3-yl)-5-chloropyrimidin-2-yl)amino)pyridin-3-yl)-1-oxo-2,8-diazaspiro[4.5]decan-8-yl)-8-oxooctyl)oxy)-2-(2,6-dioxopiperidin-3-yl)isoindoline-1,3-dione]",< 500

# Now from value to compound:
row,DC50 [nM],Compound
1,< 500,"O=C1CCC(Nc2ccc(C3CCN(CC(=O)N4CCC5(CC4)CCN(c4cncc(Nc6ncc(Cl)c(N7CCC[C@H](O)C7)n6)c4)C5=O)CC3)cc2)C(=O)N1 (stereo partly drawn) [Compound 169, 3-((4-(1-(2-(2-(5-((5-chloro-4-((S)-3-hydroxypiperidin-1-yl)pyrimidin-2-yl)amino)pyridin-3-yl)-1-oxo-2,8-diazaspiro[4.5]decan-8-yl)-2-oxoethyl)piperidin-4-yl)phenyl)amino)piperidine-2,6-dione]"
2,< 500,"CN1CCC(n2cc(-c3nc(Nc4cncc(N5CCC6(CCN(C(=O)CN7CCC(c8ccc(NC9CCC(=O)NC9=O)cc8)CC7)CC6)C5=O)c4)ncc3Cl)cn2)CC1 (stereo not shown) [Compound 194, 3-((4-(1-(2-(2-(5-((5-chloro-4-(1-(1-methylpiperidin-4-yl)-1H-pyrazol-4-yl)pyrimidin-2-yl)amino)pyridin-3-yl)-1-oxo-2,8-diazaspiro[4.5]decan-8-yl)-2-oxoethyl)piperidin-4-yl)phenyl)amino)piperidine-2,6-dione]"
3,< 500,"O=C1CCC(Nc2ccc(N3CCC(CC(=O)N4CCC5(CC4)CCN(c4cncc(Nc6ncc(Cl)c(-c7cccc(C8CCCC8)c7)n6)c4)C5=O)CC3)cc2)C(=O)N1 (stereo not shown) [Compound 191, 3-((4-(4-(2-(2-(5-((5-chloro-4-(3-cyclopentylphenyl)pyrimidin-2-yl)amino)pyridin-3-yl)-1-oxo-2,8-diazaspiro[4.5]decan-8-yl)-2-oxoethyl)piperidin-1-yl)phenyl)amino)piperidine-2,6-dione]"
4,< 500,"O=C1CCC(Nc2ccc(N3CCC(CC(=O)N4CCC5(CC4)CCN(c4cncc(Nc6ncc(Cl)c(N7CCC[C@H](C(F)(F)F)C7)n6)c4)C5=O)CC3)cc2)C(=O)N1 (stereo partly drawn) [Compound 178, 3-((4-(4-(2-(2-(5-((5-chloro-4-((S)-3-(trifluoromethyl)piperidin-1-yl)pyrimidin-2-yl)amino)pyridin-3-yl)-1-oxo-2,8-diazaspiro[4.5]decan-8-yl)-2-oxoethyl)piperidin-1-yl)phenyl)amino)piperidine-2,6-dione]"
5,< 500,"O=C1CCC(Nc2ccc(C3CCN(CC(=O)N4CCC5(CC4)CCN(c4cncc(Nc6ncc(Cl)c(N7CCC[C@@H](C(F)(F)F)C7)n6)c4)C5=O)CC3)cc2)C(=O)N1 (stereo partly drawn) [Compound 171, 3-((4-(1-(2-(2-(5-((5-chloro-4-((R)-3-(trifluoromethyl)piperidin-1-yl)pyrimidin-2-yl)amino)pyridin-3-yl)-1-oxo-2,8-diazaspiro[4.5]decan-8-yl)-2-oxoethyl)piperidin-4-yl)phenyl)amino)piperidine-2,6-dione]"
6,500 to 1000,"O=C1CCC(Nc2ccc(N3CCC(CC(=O)N4CCC5(CC4)CCN(c4cncc(Nc6ncc(Cl)c(-c7cccc(C8CCCCC8)c7)n6)c4)C5=O)CC3)cc2)C(=O)N1 (stereo not shown) [Compound 189, 3-((4-(4-(2-(2-(5-((5-chloro-4-(3-cyclohexylphenyl)pyrimidin-2-yl)amino)pyridin-3-yl)-1-oxo-2,8-diazaspiro[4.5]decan-8-yl)-2-oxoethyl)piperidin-1-yl)phenyl)amino)piperidine-2,6-dione]"
7,< 500,"O=C1CCC(Nc2ccc(C3CCN(C(=O)CN4CCC5(CC4)CCN(c4cncc(Nc6ncc(Cl)c(-c7cccc(C8CC8)c7)n6)c4)C5=O)CC3)cc2)C(=O)N1 (stereo not shown) [Compound 200, 3-((4-(1-(2-(2-(5-((5-chloro-4-(3-cyclopropylphenyl)pyrimidin-2-yl)amino)pyridin-3-yl)-1-oxo-2,8-diazaspiro[4.5]decan-8-yl)acetyl)piperidin-4-yl)phenyl)amino)piperidine-2,6-dione]"
8,< 500,"O=C1CCC(Nc2ccc(C3CCN(CC(=O)N4CCC5(CC4)CCN(c4cncc(Nc6ncc(Cl)c(N7CCOC(c8ccccc8)C7)n6)c4)C5=O)CC3)cc2)C(=O)N1 (stereo not shown) [Compound 186, 3-[4-[1-[2-[2-[5-[[5-chloro-4-(2-phenylmorpholin-4-yl)pyrimidin-2-yl]amino]-3-pyridyl]-1-oxo-2,8-diazaspiro[4.5]decan-8-yl]-2-oxo-ethyl]-4-piperidyl]anilino]piperidine-2,6-dione]"
